Assays:
BGC-823 = experiment: cells; conditions: Homo sapiens, BGC-823, 24 h
Description: Antiproliferative activity against human BGC823 cells after 24 hrs by MTT assay

cells = conditions: Homo sapiens, SW 1116, 24 h
Description: Antiproliferative activity against human SW1116 cells after 24 hrs by MTT assay

HepG2 [1] = experiment: cells; conditions: Homo sapiens, HepG2, 24 h
Description: Antiproliferative activity against human HepG2 cells after 24 hrs by MTT assay

HeLa = experiment: cells; conditions: Homo sapiens, 24 h
Description: Antiproliferative activity against human HeLa cells after 24 hrs by MTT assay

HepG2 [2] = experiment: Induction of apoptosis in human HepG2 cells assessed as early apoptotic cells at 1 uM after 24 hrs using annexin V-FITC and propidium iodide staining by flow cytometry analysis (Rvb =0.02 %); type: functional
HepG2 [3] = experiment: Induction of apoptosis in human HepG2 cells assessed as late apoptotic/necrotic cells at 1 uM after 24 hrs using annexin V-FITC and propidium iodide staining by flow cytometry analysis (Rvb =0.02 %); type: functional
HepG2 [4] = experiment: Induction of apoptosis in human HepG2 cells assessed as late apoptotic/necrotic cells at 4 uM after 24 hrs using annexin V-FITC and propidium iodide staining by flow cytometry analysis (Rvb =0.02 %); type: functional
HepG2 [5] = experiment: Induction of apoptosis in human HepG2 cells assessed as viable cells at 2 uM after 24 hrs using annexin V-FITC and propidium iodide staining by flow cytometry analysis (Rvb =96.26 %); type: functional; conditions: HepG2, 24 h, read-out: Activity
HepG2 [6] = experiment: Induction of apoptosis in human HepG2 cells assessed as late apoptotic/necrotic cells at 0.5 uM after 24 hrs using annexin V-FITC and propidium iodide staining by flow cytometry analysis (Rvb =0.02 %); type: functional
HepG2 [7] = experiment: Induction of apoptosis in human HepG2 cells assessed as late pre-necrotic cells at 2 uM after 24 hrs using annexin V-FITC and propidium iodide staining by flow cytometry analysis (Rvb =0.02 %); type: functional
HepG2 [8] = experiment: Induction of apoptosis in human HepG2 cells assessed as viable cells at 1 uM after 24 hrs using annexin V-FITC and propidium iodide staining by flow cytometry analysis (Rvb =96.26 %); type: functional; conditions: HepG2, 24 h, read-out: Activity
HepG2 [9] = experiment: Induction of apoptosis in human HepG2 cells assessed as early apoptotic cells at 0.5 uM after 24 hrs using annexin V-FITC and propidium iodide staining by flow cytometry analysis (Rvb =0.02 %); type: functional
HepG2 [10] = experiment: Induction of apoptosis in human HepG2 cells assessed as early apoptotic cells at 4 uM after 24 hrs using annexin V-FITC and propidium iodide staining by flow cytometry analysis (Rvb =0.02 %); type: functional
HepG2 [11] = experiment: Induction of apoptosis in human HepG2 cells after 24 hrs using annexin V-FITC and propidium iodide staining by flow cytometry analysis; type: functional, cell-based
HepG2 [12] = experiment: Induction of apoptosis in human HepG2 cells assessed as viable cells at 4 uM after 24 hrs using annexin V-FITC and propidium iodide staining by flow cytometry analysis (Rvb =96.26 %); type: functional; conditions: HepG2, 24 h, read-out: Activity
HepG2 [13] = experiment: Induction of apoptosis in human HepG2 cells assessed as viable cells at 0.5 uM after 24 hrs using annexin V-FITC and propidium iodide staining by flow cytometry analysis (Rvb =96.26 %); type: functional; conditions: HepG2, 24 h, read-out: Activity
HepG2 [14] = experiment: Induction of apoptosis in human HepG2 cells assessed as late pre-necrotic cells at 0.5 uM after 24 hrs using annexin V-FITC and propidium iodide staining by flow cytometry analysis (Rvb =0.02 %); type: functional
HepG2 [15] = experiment: Induction of apoptosis in human HepG2 cells assessed as late apoptotic/necrotic cells at 2 uM after 24 hrs using annexin V-FITC and propidium iodide staining by flow cytometry analysis (Rvb =0.02 %); type: functional
HepG2 [16] = experiment: Induction of apoptosis in human HepG2 cells assessed as early apoptotic cells at 2 uM after 24 hrs using annexin V-FITC and propidium iodide staining by flow cytometry analysis (Rvb =0.02 %); type: functional
HepG2 [17] = experiment: Induction of apoptosis in human HepG2 cells assessed as late pre-necrotic cells at 4 uM after 24 hrs using annexin V-FITC and propidium iodide staining by flow cytometry analysis (Rvb =0.02 %); type: functional
HepG2 [18] = experiment: Induction of apoptosis in human HepG2 cells assessed as late pre-necrotic cells at 1 uM after 24 hrs using annexin V-FITC and propidium iodide staining by flow cytometry analysis (Rvb =0.02 %); type: functional
[19] = biological target: Methionine aminopeptidase 2 (Homo sapiens, UniProt P50579); experiment: Inhibition of MetAP2 after 4 hrs
Sequence of Methionine aminopeptidase 2 (P50579 whole entry): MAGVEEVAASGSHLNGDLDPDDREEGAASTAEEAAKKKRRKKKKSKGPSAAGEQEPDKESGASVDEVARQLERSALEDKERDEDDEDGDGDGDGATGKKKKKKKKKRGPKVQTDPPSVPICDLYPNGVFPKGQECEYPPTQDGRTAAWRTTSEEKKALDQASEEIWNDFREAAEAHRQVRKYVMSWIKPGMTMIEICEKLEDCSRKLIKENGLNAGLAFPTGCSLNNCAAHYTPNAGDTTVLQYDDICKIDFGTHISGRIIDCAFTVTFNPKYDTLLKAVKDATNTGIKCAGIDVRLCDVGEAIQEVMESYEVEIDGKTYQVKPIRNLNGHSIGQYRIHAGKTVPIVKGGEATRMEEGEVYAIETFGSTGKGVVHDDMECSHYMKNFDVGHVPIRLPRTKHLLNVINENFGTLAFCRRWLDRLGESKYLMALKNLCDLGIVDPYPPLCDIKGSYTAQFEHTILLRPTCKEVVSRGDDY

SMILES	IC50 (BGC-823)	IC50 (cells)	IC50 (HepG2 [1])	IC50 (HeLa)	also measured
O=[N+]([O-])c1ccccc1CSc1nnc(-c2ccc3c(c2)OCCO3)n1-c1ccccc1	26.4 µM	8.3 µM	12 µM	69.8 µM	
COc1cccc(CSc2nnc(-c3ccc4c(c3)OCCO4)n2-c2ccccc2)c1	> 100 µM	10.1 µM	35.1 µM	> 100 µM	
Fc1ccccc1CSc1nnc(-c2ccc3c(c2)OCCO3)n1-c1ccccc1	18.6 µM	13.6 µM	0.81 µM	24.2 µM	Activity (HepG2 [2]): 3.49%; Activity (HepG2 [3]): 13.17%; Activity (HepG2 [4]): 23.25%; viability at 2 µM (HepG2 [5]): 50.8%; Activity (HepG2 [6]): 8%; Activity (HepG2 [7]): 27.21%; viability at 1 µM (HepG2 [8]): 58.9%; Activity (HepG2 [9]): 0.8%; Activity (HepG2 [10]): 11%; Activity (HepG2 [11]): Dose-dependent effect; viability at 4 µM (HepG2 [12]): 39.5%; viability at 0.5 µM (HepG2 [13]): 58.3%; Activity (HepG2 [14]): 32.8%; Activity (HepG2 [15]): 18%; Activity (HepG2 [16]): 4.03%; Activity (HepG2 [17]): 26.23%; Activity (HepG2 [18]): 24.49%
O=[N+]([O-])c1cccc(CSc2nnc(-c3ccc4c(c3)OCCO4)n2-c2ccccc2)c1	30.1 µM	7.59 µM	49.3 µM	45.2 µM	
CO[C@@H]1[C@H](OC(=O)NC(=O)CCl)CC[C@]2(CO2)[C@H]1[C@@]1(C)O[C@@H]1CC=C(C)C [O-CHLOROACETYLCARBAMOYLFUMAGILLOL]	1.48 µM	5.54 µM	0.86 µM	2.02 µM	IC50 [19]: 1.05 µM
Clc1ccccc1CSc1nnc(-c2ccc3c(c2)OCCO3)n1-c1ccccc1	17.4 µM	9.67 µM	0.97 µM	29 µM	
Cc1ccc(CSc2nnc(-c3ccc4c(c3)OCCO4)n2-c2ccccc2)cc1	44.3 µM	16.2 µM	56.8 µM	49.7 µM	
Fc1ccc(CSc2nnc(-c3ccc4c(c3)OCCO4)n2-c2ccccc2)c(F)c1	> 100 µM	7.83 µM	1.96 µM	18.6 µM	
O=[N+]([O-])c1ccc(CSc2nnc(-c3ccc4c(c3)OCCO4)n2-c2ccccc2)cc1	48.6 µM	13.8 µM	13.8 µM	36.2 µM	
Fc1ccc(CSc2nnc(-c3ccc4c(c3)OCCO4)n2-c2ccccc2)cc1	> 100 µM	20.8 µM	1.02 µM	46.9 µM	
Brc1cccc(CSc2nnc(-c3ccc4c(c3)OCCO4)n2-c2ccccc2)c1	65.6 µM	26.2 µM	5.21 µM	44.2 µM	
Brc1ccccc1CSc1nnc(-c2ccc3c(c2)OCCO3)n1-c1ccccc1	> 100 µM	7.35 µM	4.73 µM	> 100 µM	
Cc1ccccc1CSc1nnc(-c2ccc3c(c2)OCCO3)n1-c1ccccc1	> 100 µM	12.7 µM	20.5 µM	36 µM	
Clc1cccc(CSc2nnc(-c3ccc4c(c3)OCCO4)n2-c2ccccc2)c1	51.2 µM	10.6 µM	2.39 µM	15 µM	
Sc1nnc(-c2ccc3c(c2)OCCO3)n1-c1ccccc1	47 µM	38.4 µM	60 µM	51.9 µM	
c1ccc(CSc2nnc(-c3ccc4c(c3)OCCO4)n2-c2ccccc2)cc1	73.4 µM	7.93 µM	5.96 µM	32.8 µM	
Fc1cccc(F)c1CSc1nnc(-c2ccc3c(c2)OCCO3)n1-c1ccccc1	84.2 µM	9.01 µM	2.07 µM	35.2 µM	
Clc1ccc(CSc2nnc(-c3ccc4c(c3)OCCO4)n2-c2ccccc2)cc1	79.3 µM	8.3 µM	3.53 µM	79.2 µM	
Brc1ccc(CSc2nnc(-c3ccc4c(c3)OCCO4)n2-c2ccccc2)cc1	33.8 µM	5.81 µM	7.94 µM	54.6 µM	
